The values below come from ChEMBL document CHEMBL4371037, “5-Substituted-N-pyridazinylbenzamides as potent and selective LRRK2 inhibitors: Improved brain unbound fraction enables efficacy” (Bioorg Med Chem Lett, 2019).

Series [1] can be described thus: Lipophilicity, log D of the compound at pH 7.4 by chromatographic method. In kind it is physicochemical. As to conditions: buffer.
Series [2] can be described thus: Intrinsic clearance in human liver microsomes. In kind it is ADME, Microsome. Background: Liver microsomes are vesicles of endoplasmic reticulum, rich in cytochrome P450 enzymes.
The nature of series [3]: Brain to blood partition coefficient, Kp of the compound in naive rat at 5 mg/kg, iv administered as bolus dose followed by 5 ml/kg/hr iv infusion for 4 hrs. The format is ADME, organism-based.
Series [4] can be described thus: Drug level in naive rat blood at 5 mg/kg, iv administered as bolus dose followed by 5 ml/kg/hr iv infusion for 4 hrs. As to conditions: read-out: Drug uptake. In kind it is ADME, organism-based.
Series [5] in a line: Drug level in naive rat brain at 5 mg/kg, iv administered as bolus dose followed by 5 ml/kg/hr iv infusion for 4 hrs. The format is ADME, organism-based. As to conditions: read-out: Drug uptake.
A short description of series [6]: Unbound brain-to-plasma concentration ratio in naive rat at 5 mg/kg, iv administered as bolus dose followed by 5 ml/kg/hr iv infusion for 4 hrs. In kind it is ADME, organism-based. As to conditions: read-out: K(p,uu,brain).
Series [7] in a line: Drug level in naive rat kidney at 5 mg/kg, iv administered as bolus dose followed by 5 ml/kg/hr iv infusion for 4 hrs. The format is ADME, organism-based. As to conditions: read-out: Drug uptake.
Series [8] in a line: Drug level in naive rat spleen at 5 mg/kg, iv administered as bolus dose followed by 5 ml/kg/hr iv infusion for 4 hrs. The format is ADME, organism-based. As to conditions: read-out: Drug uptake.

Broadly, the chromatographic logD is a lipophilicity value derived from retention on a column. Read a low chromatographic logD as lower lipophilicity. Usually Kp stands for tissue or fluid exposure divided by exposure in the circulation.

Molecules are shown by their SMILES.

For the molecule `O=C(Nc1cccnc1)c1cc(C(F)(F)F)ccc1OCc1ccc(F)cc1`, the chromatographic logD in series [1] stood at 6.3.
In turn, `CN1CCN(c2ccc(OCc3ccccc3)c(C(=O)Nc3ccnnc3)c2)CC1` showed a CLH in series [2] of 1.6 mL/min/g. In series [1], this molecule yielded a chromatographic logD of 3.
Turning to `C[C@@H]1COCCN1c1ccc(OCc2ccccc2)c(C(=O)Nc2ccnnc2)c1`, the chromatographic logD in series [1] came to 4.5.
As to `O=C(Nc1ccnnc1)c1cc(N2CCCCC2)ccc1OCc1ccccc1`, in series [1], the chromatographic logD was determined as 6.3.
Take `O=C(Nc1ccnnc1)c1cc(N2CCCC2)ccc1OCc1ccccc1`: in series [2], the CLH was determined as 9.8 mL/min/g. The chromatographic logD in series [1] is 6.1.
Molecule `O=C(Nc1ccnnc1)c1cc(N2CCC(O)CC2)ccc1OCc1ccccc1` returned a CLH in series [2] of 0.6 mL/min/g. Besides, in series [1], the chromatographic logD was determined as 3.2.
`O=C(Nc1cccc(Cl)c1)c1cc(C(F)(F)F)ccc1OCc1ccccc1` had a chromatographic logD in series [1] of 8.8.
In series [2], `COCCN1CCN(c2ccc(OCc3ccccc3)c(C(=O)Nc3ccnnc3)c2)CC1` had a CLH of 1.3 mL/min/g. The molecule further displayed a chromatographic logD in series [1] of 3.8.
In the same order, the values of `O=C(Nc1ccnnc1)c1cc(N2CC(F)(F)C2)ccc1OCc1ccccc1` are 9.5 mL/min/g and 5.1.
As for `O=C(Nc1cccc(F)c1)c1cc(C(F)(F)F)ccc1OCc1ccc(F)cc1`, the chromatographic logD in series [1] is 8.2.
In series [3], `O=C(Nc1ccnnc1)c1cc(N2CCOCC2)ccc1OCc1ccccc1` yielded a concentration ratio (Kp) at 4 h of 1.44. In addition, the concentration at 4 h in series [4] turned out to be 1130 ng/mL; in series [5] it was 1630 ng/g; in series [7], 3970 ng/g; in series [8], 1680 ng/g. Moreover, the CLH in series [2] stood at 2.1 mL/min/g. For the same molecule, in series [6], the Kp uu at 4 h was determined as 0.51. Besides, the chromatographic logD in series [1] stood at 4.1.
`O=C(Nc1cccnc1)c1cc(C(F)(F)F)ccc1OCc1ccccc1` yielded a chromatographic logD in series [1] of 6.3.
For `O=C(Nc1ccnnc1)c1cc(N2CC(F)C2)ccc1OCc1ccccc1`, the CLH in series [2] was 11.8 mL/min/g. Besides, in series [1], the chromatographic logD stood at 4.4.
As for `CN1CCC(c2ccc(OCc3ccccc3)c(C(=O)Nc3ccnnc3)c2)CC1`, in series [1], the chromatographic logD stood at 2.3.
For `N#CC1CCN(c2ccc(OCc3ccccc3)c(C(=O)Nc3ccnnc3)c2)CC1`, the CLH in series [2] turned out to be 5.5 mL/min/g. In series [1], this molecule showed a chromatographic logD of 4.5.
Regarding `O=C(Nc1ccnnc1)c1cc(N2C[C@H]3COC[C@H]3C2)ccc1OCc1ccccc1`, the CLH in series [2] worked out at 4.3 mL/min/g. This molecule had a chromatographic logD in series [1] of 4.5.
With `CN1CC2(C1)CN(c1ccc(OCc3ccccc3)c(C(=O)Nc3ccnnc3)c1)C2`, the chromatographic logD in series [1] came out at 2.
Take `O=C(Nc1ccnnc1)c1cc(N2CCNCC2)ccc1OCc1ccccc1`: the CLH in series [2] stood at 0.4 mL/min/g. The molecule also returned a chromatographic logD in series [1] of 1.9.
For the molecule `COCCN1CCC(c2ccc(OCc3ccccc3)c(C(=O)Nc3ccnnc3)c2)CC1`, the CLH in series [2] was below 0.78 mL/min/g. Further, in series [1], the chromatographic logD turned out to be 2.9.
`O=C(Nc1ccnnc1)c1cc(N2CCC(F)CC2)ccc1OCc1ccccc1` came in with a CLH in series [2] of 5.5 mL/min/g. Moreover, the chromatographic logD in series [1] worked out at 5.1.
For `N#Cc1cccc(NC(=O)c2cc(C(F)(F)F)ccc2OCc2ccc(F)cc2)c1`, the chromatographic logD in series [1] was 7.5.
On to `O=C(Nc1ccnnc1)c1cc(C(F)(F)F)ccc1OCc1ccccc1`, for which the chromatographic logD in series [1] came to 5.4.
Take `O=C(Nc1ccnnc1)c1cc(N2CCC(CO)CC2)ccc1OCc1ccccc1`: the CLH in series [2] came out at 1 mL/min/g. Also, in series [1], the chromatographic logD came out at 3.5.
Regarding `O=C(Nc1cccc(Cl)c1)c1cc(C(F)(F)F)ccc1OCc1ccc(F)cc1`, the chromatographic logD in series [1] came out at 8.7.
Regarding `C[C@@H]1CN(c2ccc(OCc3ccccc3)c(C(=O)Nc3ccnnc3)c2)C[C@H](C)O1`, the CLH in series [2] turned out to be 2.2 mL/min/g. The same molecule had a chromatographic logD in series [1] of 5.4.
Consider `CN1CC2(CCN(c3ccc(OCc4ccccc4)c(C(=O)Nc4ccnnc4)c3)CC2)C1`, for which the chromatographic logD in series [1] stood at 2.2.
